The values below come from patent US20110160399A1, “HISTONE MODIFICATION INHIBITOR SPECIFIC TO TARGET GENE” (NIHON UNIVERSITY, priority 2008, published 2011).

Assay [1] has as its system HeLa (human uterine cervical cancer cell line). As to the kind of experiment: Cell proliferation assay (WST-8) on HeLa cells. The format is cell-based. Particulars: for suppression of HeLa cell proliferation: 72 hours, various concentrations. The protocol: (§1) Next, the synthesized compounds were verified by WST-8 assay for their ability to suppress cancer cell proliferation.
(§2) Cell lines of HeLa (human uterine cervical cancer cell line), LOVO, RKO and SW480 (each of which was a human large bowel cancer cell line) were each cultured at 37° C. under 5% carbon dioxide conditions using Dulbecco's modified Eagle's medium (DMEM, Nacalai Tesque, Inc., Japan) supplemented with 10% fetal bovine serum (FBS: JRH bioscience, USA), antibiotics (50 U/ml penicillin and 50 μg/ml streptomycin) and 1 mM sodium pyruvate. Single-layered cells grown to 80-90% confluency on 10 cm cell culture dishes were washed with D-PBS(−) (Nacalai Tesque, Inc., Japan) and then released from the dishes by being treated with a phenol red-containing 2.5 g/L-Trypsine/1 mmol/L EDTA solution (Nacalai Tesque, Inc., Japan). The released cells were adjusted and maintained in fresh medium.
(§3) Each cell line seeded at 3×10^3 cells/well in a MICROTEST tissue culture plate (96 well, FALCON) was cultured at 37° C. under 5% carbon dioxide conditions for 24 hours, and then cultured in the presence of various concentrations of PI polyamide for an additional 72 hours. After completion of the culture, 10 μl of viable cell counting reagent SF (Nacalai Tesque, Inc., Japan) was added to each well and the absorbance at 450 nm was measured by ARVO EX (PerkinElmer). During the period from reagent addition until assay, incubation was continued at 37° C. in the presence of 5% CO2 until the absorbance reached about 1.2 to 2.0 in the control sample where only 50% DMSO was added to the cells.
In general terms: Formazan colour is commonly taken as a measure of viable cells.

The subject of assay [2] is p16 gene expression (p16 RNA). As to the kind of experiment: Real-time RT-PCR of p16 gene expression in HeLa cells. The format is cell-based, human. Particulars: 48 hours, even at 10 nM, GAPDH internal standard, FIG. 6. The protocol: To verify the effect on p16 gene expression, real-time RT-PCR was performed. HeLa cells seeded at 1.5×10^4 cells per well in 24-well plates were cultured for 48 hours in the presence of various concentrations of the polyamides, and RNA was then collected by ISOGEN (Nippon Gene Co., Ltd., Tokyo, Japan). The procedures used followed the manufacturer's instructions. The isolated total RNA was measured for its concentration with Nanodrop (Nanoprop, USA) and used for cDNA synthesis with a Primescript RT reagent kit (TAKARA BIO, Shiga, Japan). The prepared cDNA was confirmed for the expression level of p16 RNA in a Thermal Cycler Dice Real-time System TP-800 (TAKARA BIO, Shiga, Japan) with SYBR premix EX Tag (TAKARA BIO, Shiga, Japan). In this case, the following primers were used in PCR reaction for p16 amplification.
Likewise, for amplification of human endogenous glyceraldehyde-3-phosphate dehydrogenase (GAPDH) used as an internal standard, the following primers were used in PCR reaction.
A general note: In qPCR the cycle at which signal appears reflects the starting amount.

The subject of assay [3] is LOVO (human large bowel cancer cell line). As to the kind of experiment: Cell proliferation assay (WST-8) on LOVO cells. The format is cell-based. Particulars: 72 hours. The method, then:
as §1
(§4) Cell lines of HeLa (human uterine cervical cancer cell line), LOVO, RKO and SW480 (each of which was a human large bowel cancer cell line) were each cultured at 37° C. under 5% carbon dioxide conditions using Dulbecco's modified Eagle's medium (DMEM, Nacalai Tesque, Inc., Japan) supplemented with 10% fetal bovine serum (FBS: JRH bioscience, USA), antibiotics (50 U/ml penicillin and 50 μg/ml streptomycin) and 1 mM sodium pyruvate. […]
as §3

Assay [4] has as its system RKO (human large bowel cancer cell line). As to the kind of experiment: Cell proliferation assay (WST-8) on RKO cells. The format is cell-based. The method, then:
as §1, §2, §3

For a further assay, the system named is p16 protein expression. As to the kind of experiment: Western blotting of p16 protein in HeLa cells. The format is cell-based, human. Particulars: 48 hours, various concentrations, α-tubulin internal standard, FIG. 7. The method, then:
After being cultured for 48 hours in the presence of various concentrations of polyamide, HeLa cells were harvested and lysed again in an extraction buffer containing 20 mM Tris-HCl (pH 7.5), 150 mM NaCl, 1 mM EDTA, 1% Nonidet P-40 and Complete Protease Inhibitor Cocktail Tablets (Roche), and then centrifuged at 13,500×g at 4° C. for 15 minutes. The resulting supernatants were supplemented with a sample buffer solution (2ME+, ×4) (Wako Pure Chemical Industries, Ltd., Japan) to give samples. These samples were developed on a 15% polyacrylamide gel, electrically transferred to a polyvinylidene difluoride membrane (Millipore Corporation, USA), and then blocked with 5% skimmed milk for the purpose of preventing non-specific binding. The primary antibodies used for target protein detection were purified anti-human p16INK4 monoclonal antibody (BD bioscience) for p16 and α-tubulin (TU-02) (SANTA CRUZ) for α-tubulin used as an internal standard. […] After antibody labeling, the membrane was developed with Immobilon western (MILLIPORE) and then detected by Las-4000 mini (Fuji Photo Film Co., Ltd., Japan). The area and intensity of each band were determined by Multigauge (Fuji Photo Film Co., Ltd., Japan) and quantified in comparison with a 50% DMSO-treated control, which was set to 100%.
For orientation: In western blotting, separated proteins are transferred to a membrane and probed.

The test system of assay [5] is SW480 (human large bowel cancer cell line). In words: Cell proliferation assay (WST-8) on SW480 cells. The format is cell-based. Particulars: SW480, 72 hours, FIG. 4. The method, then: as §1, §4, §3

SMILES strings stand for the structures. “Also recorded” adds a separate entry of the source.

`CN(C)CCCNC(=O)CCNC(=O)c1cc(NC(=O)c2nc(NC(=O)c3nc(NC(=O)CCNC(=O)c4cc(NC(=O)c5nc(NC(=O)CCCNC(=O)c6cc(NC(=O)c7nc(NC(=O)CCNC(=O)c8cc(NC(=O)c9cc(NC(=O)c%10nc(NC(=O)CCNC(=O)CCNC(=O)c%11ccc(NC(=O)CCCCCCC(=O)NO)cc%11)cn%10C)cn9C)cn8C)cn7C)cn6C)cn5C)cn4C)cn3C)cn2C)cn1C` [SAHA+p16 PIP, SAHA-ββImPyPyβImPyγImPyβImImPyβDp]: the “suppression of HeLa cell proliferation” value in assay [1] (WST-8, FIG. 3, FIG. 4) is given as “high antitumor effect”; in assay [1] (WST-8, FIG. 3, FIG. 4, listed as p16 PIP attached to the SAHA derivative) it was “proliferation inhibition; also recorded: inhibit proliferation”. The “ability to suppress proliferation, compared among the 4 cancer cell lines (HeLa)” value in assay [1] (FIG. 4) is reported as “high”. Further, in assay [2], the “expression level of p16 at the transcription level” value was “significant increase”. In addition, the “suppression of LOVO cell proliferation at 100 nM” value in assay [3] (100 nM, FIG. 4) was “not suppressed”. The “inhibition of LOVO cell proliferation” value in assay [3] (WST-8, FIG. 4) was “inhibit proliferation”. For the same compound, in assay [4] (100 nM, 72 hours, FIG. 4), the “suppression of RKO cell proliferation at 100 nM” value is listed as “not suppressed”. Besides, the “inhibition of RKO cell proliferation” value in assay [4] (72 hours, WST-8, FIG. 4) is on record as “inhibit proliferation”. Besides, the “ability to suppress proliferation, compared among the 4 cancer cell lines (RKO)” value in assay [4] (FIG. 4, listed as p16 PIP attached to the SAHA derivative) is “high and lowest”. The “expression of p16 at the protein level” value in the assay on p16 protein expression is on record as “enhanced the expression”. Further, the “inhibition of SW480 cell proliferation” value in assay [5] is recorded as “inhibit proliferation”.
